# Measured values: paper PMC2131757 (BMC Neuroscience, 2007)
# How the values were obtained:
# Type in all cases: cell-based, murine
# [1] = test system: cPLA2 in NB4 1A3 neuroblastoma cells
# [2] = test system: COX-1 in NB4 1A3 neuroblastoma cells
# [3] = test system: NB4 1A3 neuroblastoma cells
# [4] = test system: NB4 1A3 neuroblastoma cells; remark: listed apart in the source
# NB4 neuroblastoma cells = test system: NB4 neuroblastoma cells
# [5] = test system: NB4 1A3 neuroblastoma cells; settings: n = 6
# [6] = test system: NB4 1A3 neuroblastoma cells; remark: listed apart in the source
compound,measurement,setting,value
"1-O-alkyl-2-acetyl-sn-glycerol-3-phospho-(N,N,N-trimethyl)-hexanolamine [Hexa-PAF]",% of MoPrP105-132 co-localised with cPLA2 in Hexa-PAF-treated cells,[1],22% ± 6
same,% of MoPrP105-132 co-localised with COX-1 in Hexa-PAF-treated cells,[2],13% ± 3
"C=C(CC[C@]12O[C@H](C(=O)O)[C@@](O)(C(=O)O)[C@](C(=O)O)(O1)[C@H](OC(=O)/C=C/[C@@H](C)C[C@@H](C)CC)[C@H]2O)[C@@H](OC(C)=O)[C@H](C)Cc1ccccc1 [Squalestatin, squalestatin]",% of MoPrP105-132 co-localised with CTxB in squalestatin-treated cells,[3],5% ± 1
same,% of MoPrP105-132 co-localised with GM130 (Golgi) in squalestatin-treated cells,[3],7% ± 2
same,% of MoPrP105-132 co-localised with Grp78 (ER) in squalestatin-treated cells,[3],3% ± 2
same,% of MoPrP105-132 co-localised with LAMP-1 (lysosomes) in squalestatin-treated cells,[3],40% ± 6
same,% of MoPrP105-132 co-localised with TfR (early endosomes) in squalestatin-treated cells,[3],68% ± 8
same,% of MoPrP105-132 co-localised with caveolin-1 in squalestatin-treated cells,[3],9% ± 3
same,endosomal fraction in which MoPrP105-132 is detected in squalestatin-treated cells,[4],"detected in the LAMP-1 positive, TfR negative, lysosomal fraction"
same,% of MoPrP105-132 co-localised with cPLA2 in squalestatin-treated cells,[1],13% ± 4
same,effect of squalestatin treatment on MoPrP105-132 induced neurotoxicity,NB4 neuroblastoma cells,prevent peptide-induced neurotoxicity
same,cell associated fluorescence (mean fluorescence intensity) of ingested MoPrP105-132 in squalestatin treated cells,[5],25.3 ± 4 arbitrary units
same,% of MoPrP105-132 co-localised with COX-1 in squalestatin-treated cells,[2],5% ± 5
same,membrane fraction in which MoPrP105-132 is found (raft / non-raft) in squalestatin-treated cells,[6],most of the MoPrP105-132 was detected in the non-raft fraction
